From patent publication US11160796B2, “Anti-androgens for the treatment of non-metastatic castration-resistant prostate cancer” (priority 2017, dated 2021)
Entries after “also recorded” stand apart in the source; their conditions may differ.

What was measured:
[1] = system: T1, major CYP isoforms other than CYP2C8; assay: Cytochrome P450 inhibition: major isoforms; assay type: in vitro ADME; details: human; the other major isoforms (other than CYP2C8)
T1 construct: IC50; other: the other major isoforms (other than CYP2C8)

[2] = Single-dose and repeat-dose toxicology studies in male rats
Source text: (§1) Single-dose and repeat-dose toxicology studies up to 13 weeks of dosing have been conducted in male Sprague Dawley (SD) rats and male Beagle dogs (repeat-dose studies only).

in vivo = details: dog
Source text: as §1

[3] = system: non-metastatic castration-resistant prostate cancer (NM-CRPC); assay: Phase III study (SPARTAN, Study 1): efficacy; assay type: in vivo, human; details: for Metastasis Free Survival (MFS), median: 240 mg once daily + ADT, ITT, BICR
Source text: The study consisted of a Screening Phase of up to 35 days before randomization to establish eligibility and document baseline measurements, a double-blind Treatment Phase (28-day treatment cycles; continuous dosing), and a Long-term Follow-up Phase to monitor PFS, survival status, subsequent prostate cancer therapy, PRO, and MRU. […] The randomization was stratified as follows: • PSADT: <6 months vs. >6 months; • Bone-sparing agent use: Yes vs. No; and • Loco-regional disease: N0 vs. N1 (ie, nodal disease).
All patients who were not surgically castrated received ADT continuously throughout the study. […] Systemic corticosteroids were not allowed at study entry. […] Patients randomized to either arm were to continue treatment until disease progression defined by blinded central imaging review (BICR), initiation of new treatment, unacceptable toxicity or withdrawal.
With the softgel capsules only, subjects could switch to a twice daily dosing regimen (4 tables each period) if gastrointestinal issues arose with the once daily schedule. […] For the purposes of this study, a treatment cycle consisted of 4 weeks (28 days).
The primary efficacy endpoint was metastasis-free survival (MFS), defined as the time from randomization to the time of first evidence of BICR-confirmed bone or soft tissue distant metastasis or death due to any cause, whichever occurred first. Metastasis-free survival data for subjects without metastasis or death were censored on the date of the last tumor assessment (or, if no tumor assessment was performed after the baseline visit, at the date of randomization). Censoring rules based on FDA and CHMP guidance were applied for analyses of MFS (referred to in the text as US censoring or ex-US censoring).
Patients were stratified by Prostate Specific Antigen (PSA) Doubling Time (PSADT), the use of bone-sparing agents, and locoregional disease. Patients were required to have a PSADT≤10 months and confirmation of non-metastatic disease by blinded independent central review (BICR).
The major efficacy outcome measure of the study was metastasis-free survival (MFS), defined as the time from randomization to the time of first evidence of BICR-confirmed distant metastasis, defined as new bone or soft tissue lesions or enlarged lymph nodes above the iliac bifurcation, or death due to any cause, whichever occurred first. Additional efficacy endpoints were time to metastasis (TTM), progression-free survival (PFS) which also includes locoregional progression, time to symptomatic progression, and overall survival (OS).

CYP2C8 = target: T2, CYP2C8 (Homo sapiens, UniProt P10632); assay: Contribution of CYP2C8 in the metabolism of apalutamide; assay type: in vivo; details: estimated
T2 construct: from tissue; host or cells: human subjects, in vivo (clinical pharmacology)
T2 sequence (P10632 1-490): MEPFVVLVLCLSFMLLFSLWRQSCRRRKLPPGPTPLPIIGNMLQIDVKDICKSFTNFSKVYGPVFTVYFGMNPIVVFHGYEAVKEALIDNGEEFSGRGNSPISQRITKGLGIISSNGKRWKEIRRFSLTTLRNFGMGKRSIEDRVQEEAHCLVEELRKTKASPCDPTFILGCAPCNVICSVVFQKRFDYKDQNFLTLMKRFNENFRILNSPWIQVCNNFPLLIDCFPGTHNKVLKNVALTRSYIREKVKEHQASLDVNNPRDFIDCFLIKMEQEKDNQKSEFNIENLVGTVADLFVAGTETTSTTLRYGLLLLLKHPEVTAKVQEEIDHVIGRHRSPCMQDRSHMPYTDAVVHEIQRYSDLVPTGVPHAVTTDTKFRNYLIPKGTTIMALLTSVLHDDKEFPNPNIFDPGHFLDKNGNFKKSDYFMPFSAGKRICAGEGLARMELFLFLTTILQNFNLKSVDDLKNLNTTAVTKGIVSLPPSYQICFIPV

[4] = system: organic cation transporter 2 (OCT2), organic anion transporter 3 (OAT3) and multidrug and toxin extrusions (MATEs); assay: In vitro transporter inhibition: OCT2, OAT3, MATEs; assay type: in vitro ADME
[5] = In vivo rat (bone marrow) micronucleus assay
human CYP2B6 and CYP3A4 = details: hepatocytes
LNCaP/AR cells = details: literature; cited from earlier work
[6] = system: castration-resistant LNCaP/AR-Luc xenograft model; details: non-castrate hormone-sensitive and bicalutamide-resistant models (Clegg et al.); cited from earlier work
CYP1A2 and CYP2D6 = assay: In vitro effect on CYP1A2 and CYP2D6; details: therapeutically relevant concentrations
[7] = Clinical pharmacokinetics (population PK analysis); details: for dose dependence of exposure (Cmax and AUC): repeat once-daily dosing, 30 to 480 mg

In the case of CNC(=O)c1ccc(N2C(=S)N(c3cnc(C#N)c(C(F)(F)F)c3)C(=O)C23CCC3)cc1F [apalutamide, 4-[7-(6-cyano-5-trifluoromethylpyridin-3-yl)-8-oxo-6-thioxo-5,7-diazaspiro[3.4]oct-5-yl]-2-fluoro-N-methylbenzamide], the IC50 [1] is reported as > 25 µM, the well tolerated dose ([2]; 13-weeks study, once daily oral gavage, male SD rats) is reported as “up to 100 mg/kg/day” and the “dose with reproductive system findings (atrophy, aspermia/hypospermia, degeneration, hyperplasia or hypertrophy)” value ([2]; male, Sprague Dawley, rat, in vivo) is reported as > 25 mg/kg/day. For the same compound, the NOAEL at 13 weeks ([2]; male, Sprague-Dawley, rat, in vivo) was 100 mg/kg/day, the “increase in cholesterol from controls” value ([2]; rat, in vivo, 150 mg/kg/day) was “greater than 200%” and the “increases in cholesterol compared to controls” value (in vivo) was “up to 50%”. For the same compound, the NOAEL at 13 weeks (in vivo; male, Beagle) was 5 mg/kg/day, the NOAEL at 28 days (in vivo; male, Beagle) was 10 mg/kg/day and the “dose at which seizures necessitating humane euthanasia occurred” value (in vivo; male, Beagle) was ≥ 25 mg/kg/day. The “dose with reproductive system findings” value (in vivo; male, Beagle) was > 2.5 mg/kg/day, the AUC(0-t) (in vivo; male, Beagle, 10 mg/kg/day) was 290 µg·h/mL and the Cmax (in vivo; male, Beagle, 10 mg/kg/day) was 13200 ng/mL. The “Metastasis Free Survival (MFS), median” value [3] was 41 months, the “Metastasis Free Survival (MFS), median” value ([3]; listed as Apalutamide) was 40.5 months and the “decrease in the risk of symptomatic progression” value ([3]; compared with placebo) was 55%. The “Progression-free Survival (PFS), median” value ([3]; in vivo) was 40.5 months, the “Time to Metastasis (TTM), median” value ([3]; in vivo) was 40.5 months and the “MFS HR, subgroup PSA doubling time of >6 months” value ([3]; non-stratified analysis) was 0.30. For the same compound, the “MFS HR, subgroup PSA doubling time of months” value ([3]; non-stratified analysis) was 0.29, the “MFS HR, total study population” value ([3]; non-stratified analysis) was 0.30 and the “decrease in the risk of distant metastasis or death” value ([3]; vs placebo) was 72%. The “contribution of CYP2C8 in the metabolism” value (CYP2C8; at steady-state) was 40%, the “contribution of CYP2C8 in the metabolism” value (CYP2C8; following single dose) was 58% and the “inhibition of OCT2, OAT3 and MATEs” value [4] was “cannot be excluded; also recorded: inhibit”. For the same compound, the “genotoxicity, in vivo rat micronucleus assay” value [5] was “not genotoxic”, the “CYP3A4 and CYP2B6 induction” value (human CYP2B6 and CYP3A4) was “moderate to strong CYP3A4 and CYP2B6 inducers” and the “agonist activity in the context of AR overexpression” value (LNCaP/AR cells) was “lacks the partial agonist activity”. The “tumor regression in human prostate cancer xenograft models” value [6] was “partial or complete tumor regression”, the “effect on CYP1A2 and CYP2D6” value (CYP1A2 and CYP2D6) was “do not affect” and the “time to steady state” value ([7]; 240 mg once daily) was 4 weeks. For the same compound, the CL/F ([7]; after single dosing) was 1.3 L/h, the CL/F ([7]; at steady-state after once-daily dosing) was 2.0 L/h and the “changes in Cmax and AUC with food” value ([7]; high-fat meal vs fasting, healthy subjects) was “no clinically relevant changes”. The Tmax ([7]; human, plasma, po) was 2 h, the bioavailability ([7]; human, plasma, po) was ~100% and the “differences in pharmacokinetics in specific populations” value ([7]; mild or moderate renal impairment, mild or moderate hepatic impairment, age 18 to 94 years, race) was “No clinically significant differences”. The “dose dependence of exposure (Cmax and AUC)” value [7] was “dose-proportional” and the “dose dependence of exposure (Cmax and AUC)” value ([7]; listed as Apalutamide) was “increased proportionally”.
